US20190160064A1, “METHODS FOR TREATING SKELETAL MUSCLE CACHEXIA ARISING FROM BURN INJURY BY ADMINISTERING PDE4B-SELECTIVE INHIBITORS” (University of Cincinnati, priority 2017, published 2019)

Experiments:
[1] = system: PDE4D in lung tissue; conditions: murine model of asthma; cited from earlier work
[2] = system: EDL muscle of burn-PDE4B KO rats; assay: EDL muscle protein breakdown during 2 h in vitro incubation with EPAC/PKA inhibitors; format: cell-based, rat; conditions: EDL muscle of burn-PDE4B KO rats obtained 24 h after burn, 2 h in vitro incubation with inhibitor
Procedure: After 24 h, rats were re-anesthetized with pentobarbital (50 mg/kg), and the gastrocnemius muscles were dissected and rapidly frozen in liquid nitrogen. To assess protein breakdown rates, the dissected extensor digitorum longus (EDL) muscles were tied by the tendons at resting length to stainless steel supports and preincubated in a shaking water bath for 30 min at 37° C. in individually stoppered 25 ml flasks containing 3 ml oxygenated (95% 02-5% CO2) Krebs-Henseleit bicarbonate buffer (pH 7.4) with 10 mM glucose. Muscles were then transferred to fresh buffer containing 0.5 mM cycloheximide for 2 h incubation. The total (tyrosine) and myofibrillar (1-methyl-histidine, 1-Me-His) protein breakdown rates were determined by measuring the net production of tyrosine and 1-Me-His during 2 h incubation, according to previously published HPLC procedures (Balasubramaniam, A., et al., Torbafylline (HWA 448) inhibits skeletal muscle proteolysis in burned rats, J. Burn Care & Res. 30: S151 (2009)). The protein breakdown studies with PDE4B KO-rats were repeated with eight each of sham and burn rats to corroborate our initial findings. Additional in vivo experiments were performed to obtain tissues for biochemical studies and to study the effects of inhibitors of PKA (H89) and EPAC (ESI-09) on EDL protein breakdown in PDE4B KO-rats.
To elucidate the factor(s) imparting resistance to burn-induced skeletal muscle proteolysis in PDE4B-KO rats, EDL muscles of burn-PDE4B KO rats were incubated in the presence of inhibitors for cAMP downstream elements, PKA (H89) and EPAC (ESI-09).

[3] = system: EDL muscle of burned WT rats; assay: Pre-treatment of WT rats before burn injury, EDL muscle protein breakdown (Example 6); format: in vivo, rat; conditions: adult WT rats pre-treated daily for 7 days before 30% TBSA burn, 24 h after burn, vs. saline control WT rats
Procedure: Adult WT rats are pre-treated with either PDE4B-selective inhibitor (4-{[2-(5-Chloro-2-thienyl)-5-ethyl-6-methyl-4-pyrimidinyl]amino}phenyl)acetic acid (test group) or saline (control group). Rats are treated daily for 7 days prior to burn exposure. On day 8, rats are anaesthetized, shaved, and subjected to a third-degree burn on the back, affecting 30% of total body surface area (TBSA). Both test WT rats and control WT rats are then resuscitated. All rats are provided with rat chow equivalent to ˜10% of their body weight.
After 24 h, all rats are re-anesthetized and the gastrocnemius muscles are dissected and rapidly frozen in liquid nitrogen. To assess protein breakdown rates, the dissected extensor digitorum longus (EDL) muscles are tied by the tendons at resting length to stainless steel supports and preincubated in a shaking water bath for 30 min at 37° C. in individually stoppered 25 ml flasks containing oxygenated (95% 02-5% CO2) Krebs-Henseleit bicarbonate buffer (pH 7.4) with 10 mM glucose. Muscles are then transferred to fresh buffer containing 0.5 mM cycloheximide for 2 h incubation. The total (tyrosine) and myofibrillar (1-methyl-histidine, 1-Me-His) protein breakdown rates are determined by measuring the net production of tyrosine and 1-Me-His during 2 h incubation.

[4] = system: mouse myotubes, C2C12; conditions: C2C12 myotubes treated with TNFα+IFNγ; cited from earlier work
[5] = system: burn-induced skeletal muscle proteolysis; conditions: rat, burn injury; cited from earlier work

ciclamilast
PDE4D activity in lung tissue [1]: normalized | PDE4D mRNA expression in lung tissue [1]: normalized

CC(C)(C)c1cc(C(=O)/C(C#N)=N/Nc2cccc(Cl)c2)no1 [ESI-09]
burn-induced EDL muscle myofibrillar protein breakdown (1-Me-His) [2]: to the same extent as in the EDL muscle of burn-WT rats | burn-induced EDL muscle total protein breakdown (Tyr) [2]: to the same extent as in the EDL muscle of burn-WT rats

CCc1c(C)nc(-c2ccc(Cl)s2)nc1Nc1ccc(CC(=O)O)cc1 [Compound 33, (4-{[2-(5-Chloro-2-thienyl)-5-ethyl-6-methyl-4-pyrimidinyl]amino}phenyl) acetic acid]
1-Me-His release from the EDL muscle (myofibrillar protein breakdown) [3]: significantly decreases | Tyr release from the EDL muscle (total protein breakdown) [3]: significantly decreases

O=S(=O)(NCCNC/C=C/c1ccc(Br)cc1)c1cccc2cnccc12 [Compound H89]
burn-induced EDL muscle myofibrillar protein breakdown (1-Me-His) [2]: did not exhibit any effect | burn-induced EDL muscle total protein breakdown (Tyr) [2]: did not exhibit any effect

CCOCn1cnc2c1c(=O)n(CCCCC(C)(C)O)c(=O)n2C [torbafylline]
PDE4B expression [4]: normalized | proteolysis (protein breakdown) [4]: normalized | EPAC/PI3K/Akt pathway [5]: activating | burn-induced skeletal muscle proteolysis [5]: significantly attenuated | skeletal muscle PDE4 activity [5]: normalizing | skeletal muscle cAMP concentrations [5]: normalizing
